# Where two headings read alike, the source gives them in different places.
# Tests used:
# [1] = tested on: recombinant HIV-1YU2; format: cell-based; conditions: CD4-deficient Cf2Th-CCR5 cells
# [2] = molecular target: gp120 (Human immunodeficiency virus type 1 group M subtype B, UniProt P35961); assay: Isothermal titration calorimetry binding to gp120
# [3] = tested on: wild-type HIV-1YU2 virus; format: cell-based; conditions: CD4-expressing Cf2Th-CCR5 target cells
# [4] = tested on: S375A mutant HIV-1YU2 envelope glycoproteins; format: cell-based; conditions: base of the Phe 43 cavity
# [5] = tested on: D368A mutant HIV-1YU2 envelope glycoproteins; format: cell-based; conditions: vestibule of the Phe 43 cavity
Compound,Enhancement of viral infectivity (in words) [1],gp120 binding affinity (in words) ([2]; ITC),Inhibition of CD4-gp120 binding / viral infection (in words) [3],other results
O=C(NCC1NCCc2ccccc21)C(=O)Nc1ccc(Cl)c(F)c1 (stereo not shown) [Compound 39],decreased enhancement of viral infectivity,–,–,–
CC1(C)CC(NC(=O)C(=O)Nc2ccc(Cl)c(F)c2)CC(C)(C)[N+]1(C)[O-] (stereo not shown) [Compound 20],–,–,–,gp120 binding affinity (in words) [2]: reduced binding
O=C(NCC1CCCN(CCO)C1)C(=O)Nc1ccc(Cl)c(F)c1 (stereo not shown) [Compound 51],ineffective at enhancing viral infectivity,–,–,–
CC(C)N1CCC(NC(=O)C(=O)Nc2ccc(Cl)c(F)c2)CC1 [Compound 11],–,retention of binding affinity,–,–
CC(C)N1CCCCC1CCNC(=O)C(=O)Nc1ccc(Cl)c(F)c1 (stereo not shown) [Compound 25],–,–,improved IC50,–
O=C(Nc1ccc(Cl)c(F)c1)C(=O)NC1CCNC2(CCC2)C1 (stereo not shown) [Compound 49],activation of viral infectivity similar to 1,sub-micromolar binding affinity,maintained inhibition,Effect of S375A mutation on inhibition of CD4-gp120 binding (in words) [4]: increases the ability of these analogues to inhibit CD4-gp120 binding; Effect of D368A mutation on analogue binding (in words) [5]: negative effect
CC1(C)CC(NC(=O)C(=O)Nc2ccc(Cl)c(F)c2)CC(C)(C)O1 [Compound 19],–,reduced binding,–,–
CC1(C)C2CCC1(C)C(NC(=O)C(=O)Nc1ccc(Cl)c(F)c1)C2 (stereo not shown) [Compound 18],–,–,failed to exhibit inhibition,–
CCN1CCCC1CNC(=O)C(=O)Nc1ccc(Cl)cc1 (stereo not shown) [Compound 42],–,–,inhibited CD4-gp120 binding,–
C[C@@H]1CCC[C@H](C)N1CCNC(=O)C(=O)Nc1ccc(Cl)c(F)c1 [Compound 50],ineffective at enhancing viral infectivity,–,–,Effect of S375A mutation on inhibition of CD4-gp120 binding (in words) [4]: increases the ability of these analogues to inhibit CD4-gp120 binding; Effect of D368A mutation on analogue binding (in words) [5]: negative effect
CCN1CCCC1CNC(=O)C(=O)Nc1ccc(Cl)c(F)c1 (stereo not shown) [Compound 43],without the accompanying enhancement of viral infectivity,binding affinity comparable to 41,–,–
CC1(C)CC(NC(=O)C(=O)Nc2ccc(Cl)c(F)c2)CC(C)(C)C1 [Compound 17],–,–,failed to exhibit inhibition,–

# — article PMC3049263 (Bioorganic & medicinal chemistry, 2010)
